Experimental data as given in patent US11261186B2, “Biaryl derivative as GPR120 agonist” (LG CHEM, LTD., priority 2014, dated 2022).

target: T1, hGPR120 (Homo sapiens, UniProt Q5NUL3); assay: Measurement of Activity of GPR120 Agonist (Cell-Based Assay), Calcium 5 dye fluorescence; conditions: CHO-K1 cells expressing Ga16 and hGPR120
T1 construct: expressed in transfected cells; host or cells: CHO-K1
T1 sequence (Q5NUL3 1-361): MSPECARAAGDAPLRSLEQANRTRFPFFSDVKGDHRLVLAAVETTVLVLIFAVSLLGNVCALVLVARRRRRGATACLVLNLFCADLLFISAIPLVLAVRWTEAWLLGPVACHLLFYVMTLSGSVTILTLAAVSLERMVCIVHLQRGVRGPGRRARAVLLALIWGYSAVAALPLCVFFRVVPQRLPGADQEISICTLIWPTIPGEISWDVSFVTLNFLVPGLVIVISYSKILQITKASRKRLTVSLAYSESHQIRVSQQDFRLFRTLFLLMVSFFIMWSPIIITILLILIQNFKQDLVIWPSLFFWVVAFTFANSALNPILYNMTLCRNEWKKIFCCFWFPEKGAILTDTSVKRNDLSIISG
How it was run: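 Fluorescence increase (Ex 485 nm, Em 525 nm) after agonist addition was calculated as relative percent of the 1% DMSO-only signal. Cells were CHO-K1 stably carrying Gα16 plus human GPR120, dye-loaded for 1 h after overnight (18 h) culture.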

First: CC(C)n1cc(Cl)c2ccc(-c3cc(F)c(OCCCC(=O)O)c(F)c3)cc21 [Example 562, 4-[4-(3-chloro-1-isopropyl-1H-indol-6-yl)-2,6-difluoro-phenoxy]-butanoic acid]
Second: CC(C)COCc1cc(-c2cc(F)c(OCCCC(=O)O)c(F)c2)cs1 [Example 572, 4-[2,6-difluoro-4-(5-isobutoxymethyl-thiophen-3-yl)-phenoxy]-butanoic acid]
The EC50 of the first is higher: 2000 to 20000 nM for the first, under 200 nM for the second. The second is the more potent here.

`CC(C)Oc1cccc(-c2cc(F)c(N3CCC(CC(=O)O)C3)c(F)c2)n1` (stereo not shown) [Example 563, {1-[2,6-difluoro-4-(6-isopropoxy-pyridin-2-yl)-phenyl]-pyrrolidin-3-yl}-acetic acid] and `CC(C)Oc1cncc(-c2cc(F)c(N3CCC(CC(=O)O)C3)c(F)c2)n1` (stereo not shown) [Example 586, {1-[2,6-difluoro-4-(6-isopropoxy-pyrazin-2-yl)-phenyl]-pyrrolidin-3-yl}-acetic acid] cannot be ordered by EC50: under 200 nM for the first, under 200 nM for the second.

First: O=C(O)CC1CCN(c2c(F)cc(-c3cccc(OCC4CCC4)n3)cc2F)C1 (stereo not shown) [Example 564, {1-[4-(6-cyclobutylmethoxy-pyridin-2-yl)-2,6-difluoro-phenyl]-pyrrolidin-3-yl}-acetic acid]
Second: O=C(O)CC1CCN(c2c(F)cc(-c3cncc(OCC4CC4)n3)cc2F)C1 (stereo not shown) [Example 580, {1-[4-(6-cyclopropylmethoxy-pyrazin-2-yl)-2,6-difluoro-phenyl]-pyrrolidin-3-yl}-acetic acid]
The EC50 of the first is higher: 200 to 2000 nM for the first, under 200 nM for the second. The second is the more potent here.

`O=C(O)CCCOc1c(F)cc(-c2ccc(COCC3CC3)s2)cc1F` [Example 565, 4-[4-(5-cyclopropylmethoxymethyl-thiophen-2-yl)-2,6-difluoro-phenoxy]-butanoic acid] and `O=C(O)CCCOc1c(F)cc(-c2csc(COCC3CC3)c2)cc1F` [Example 566, 4-[4-(5-cyclopropylmethoxymethyl-thiophen-3-yl)-2,6-difluoro-phenoxy]-butanoic acid] cannot be ordered by EC50: under 200 nM for the first, under 200 nM for the second.

First: O=C(O)CC1CCN(c2c(F)cc(-c3csc(COCC4CC4)c3)cc2F)CC1 [Example 567, {1-[4-(5-cyclopropylmethoxymethyl-thiophen-3-yl)-2,6-difluoro-phenyl]-piperidin-4-yl}-acetic acid]
Second: O=C(O)CC1CCN(c2c(F)cc(-c3ccc(COCC4CC4)s3)cc2F)CC1 [Example 569, {1-[4-(5-cyclomethoxymethyl-thiophen-2-yl)-2,6-difluoro-phenyl]-piperidin-4-yl}-acetic acid]
The EC50 of the first is lower: 200 to 2000 nM for the first, 2000 to 20000 nM for the second. The first is the more potent here.

Compared with `Cc1nc(COCC2CC2)c(-c2cc(F)c(OCCCC(=O)O)c(F)c2)s1` [Example 568, 4-[4-(4-cyclopropylmethoxymethyl-2-methyl-thiazol-5-yl)-2,6-difluoro-phenoxy]-butanoic acid], `O=C(O)CCCOc1c(F)cc(-c2sccc2COCC2CC2)cc1F` [Example 574, 4-[4-(3-cyclopropylmethoxymethyl-thiophen-2-yl)-2,6-difluoro-phenoxy]-butanoic acid] is lower in EC50: 2000 to 20000 nM for the first, under 200 nM for the second.

First: Cc1nc(COCC2CC2)c(-c2cc(F)c(N3CCC(CC(=O)O)CC3)c(F)c2)s1 [Example 570, {1-[4-(4-cyclopropylmethoxymethyl-2-methyl-thiazol-5-yl)-2,6-difluoro-phenyl]-piperidin-4-yl}-acetic acid]
Second: Cc1cc(OCC2CC2)nc(-c2cc(F)c(N3CCC(CC(=O)O)C3)c(F)c2)n1 (stereo not shown) [Example 576, {1-[4-(4-cyclopropylmethoxy-6-methyl-pyrimidin-2-yl)-2,6-difluoro-phenyl]-pyrrolidin-3-yl}-acetic acid]
The EC50 of the first is higher: 200 to 2000 nM for the first, under 200 nM for the second. The second is the more potent here.

Compared with `O=C(O)CCCOc1c(F)cc(-c2csc(COC3CCC3)c2)cc1F` [Example 573, 4-[4-(5-cyclobutoxymethyl-thiophen-3-yl)-2,6-difluoro-phenoxy]-butanoic acid], `O=C(O)CC1CCN(c2c(F)cc(-c3csc(OC4CCC4)n3)cc2F)C1` (stereo not shown) [Example 582, {1-[4-(2-cyclobutoxy-thiazol-4-yl)-2,6-difluoro-phenyl]-pyrrolidin-3-yll}-acetic acid] is higher in EC50: under 200 nM for the first, 200 to 2000 nM for the second.

`Cc1cc(OC2CCC2)nc(-c2cc(F)c(N3CCC(CC(=O)O)C3)c(F)c2)n1` (stereo not shown) [Example 575, {1-[4-(4-cyclobutoxy-6-methyl-pyrimidin-2-yl)-2,6-difluoro-phenyl]-pyrrolidin-3-yl}-acetic acid] and `Cc1cc(OC2CCC2)nc(-c2cc(F)c(N3CCC(CC(=O)O)C3)c(F)c2)c1` (stereo not shown) [Example 577, {1-[4-(6-cyclobutoxy-4-methyl-pyridin-2-yl)-2,6-difluoro-phenyl]-pyrrolidin-3-yl}-acetic acid] fall in the same range of EC50: 200 to 2000 nM for the first, 200 to 2000 nM for the second.

Compared with `O=C(O)CC1CCN(c2c(F)cc(-c3cncc(OC4CCC4)n3)cc2F)C1` (stereo not shown) [Example 578, {1-[4-(6-cyclobutoxy-pyrazin-2-yl)-2,6-difluoro-phenyl]-pyrrolidin-3-yll}-acetic acid], `COc1cncc(-c2cc(F)c(N3CCC(CC(=O)O)C3)c(F)c2)n1` (stereo not shown) [Example 584, {1-[2,6-difluoro-4-(6-methoxy-pyrazin-2-yl)-phenyl]-pyrrolidin-3-yl}-acetic acid] is higher in EC50: under 200 nM for the first, 200 to 2000 nM for the second. The first is the more potent here.

`O=C(O)CC1CCN(c2c(F)cc(-c3nccc(OC4CCC4)n3)cc2F)C1` (stereo not shown) [Example 579, {1-[4-(4-cyclobutoxy-pyrimidin-2-yl)-2,6-difluoro-phenyl]-pyrrolidin-3-yl}-acetic acid] and `O=C(O)CC1CCN(c2c(F)cc(-c3nccc(OCC4CC4)n3)cc2F)C1` (stereo not shown) [Example 581, {1-[4-(4-cyclopropylmethoxy-pyrimidin-2-yl)-2,6-difluoro-phenyl]-pyrrolidin-3-yl}-acetic acid] cannot be ordered by EC50: under 200 nM for the first, under 200 nM for the second.

`O=C(O)CC1CCN(c2c(F)cc(-c3csc(OCC4CC4)n3)cc2F)C1` (stereo not shown) [Example 583, {1-[4-(2-cyclopropylmethoxy-thiazol-4-yl)-2,6-difluoro-phenyl]-pyrrolidin-3-yl}-acetic acid] and `O=C(O)CC1CCN(c2c(F)cc(-c3ncc(F)c(OCC4CC4)n3)cc2F)C1` (stereo not shown) [Example 593, {1-[4-(4-cyclopropylmethoxy-5-fluoro-pyrimidin-2-yl)-2,6-difluoro-phenyl]-pyrrolidin-3-yl}-acetic acid] fall in the same range of EC50: 200 to 2000 nM for the first, 200 to 2000 nM for the second.

`CCOc1cncc(-c2cc(F)c(N3CCC(CC(=O)O)C3)c(F)c2)n1` (stereo not shown) [Example 585, {1-[4-(6-ethoxy-pyrazin-2-yl)-2,6-difluoro-phenyl]-pyrrolidin-3-yl}-acetic acid] and `CCOc1cc(C)nc(-c2cc(F)c(N3CCC(CC(=O)O)C3)c(F)c2)n1` (stereo not shown) [Example 590, {1-[4-(4-ethoxy-6-methyl-pyrimidin-2-yl)-2,6-difluoro-phenyl]-pyrrolidin-3-yl}-acetic acid] cannot be ordered by EC50: under 200 nM for the first, under 200 nM for the second.

Compared with `Cc1cc(OC(C)C)nc(-c2cc(F)c(N3CCC(CC(=O)O)C3)c(F)c2)n1` (stereo not shown) [Example 587, {1-[2,6-difluoro-4-(4-isopropoxy-6-methyl-pyrimidin-2-yl)-phenyl]-pyrrolidin-3-yl}-acetic acid], `CCCOc1cc(C)nc(-c2cc(F)c(N3CCC(CC(=O)O)C3)c(F)c2)n1` (stereo not shown) [Example 589, {1-[2,6-difluoro-4-(4-methyl-6-propoxy-pyrimidin-2-yl)-phenyl]-pyrrolidin-3-yl}-acetic acid] is lower in EC50: 200 to 2000 nM for the first, under 200 nM for the second. The second is the more potent here.

Compared with `Cc1nsc(OC2CCC2)c1-c1cc(F)c(N2CCC(CC(=O)O)C2)c(F)c1` (stereo not shown) [Example 591, {1-[4-(5-cyclobutoxy-3-methyl-isothiazol-4-yl)-2,6-difluoro-phenyl]-pyrrolidin-3-yl}-acetic acid], `O=C(O)CC1CCN(c2c(F)cc(-c3ncc(F)c(OC4CCC4)n3)cc2F)C1` (stereo not shown) [Example 592, {1-[4-(4-cyclobutoxy-5-fluoro-pyrimidin-2-yl)-2,6-difluoro-phenyl]-pyrrolidin-3-yl}-acetic acid] is higher in EC50: under 200 nM for the first, 200 to 2000 nM for the second. The first is the more potent here.

`CC(C)COc1nc(-c2cc(F)c(N3CCC(CC(=O)O)C3)c(F)c2)ncc1F` (stereo not shown) [Example 594, {1-[2,6-difluoro-4-(5-fluoro-4-isobutoxy-pyrimidin-2-yl)-phenyl]-pyrrolidin-3-yl}-acetic acid] and `CC(C)COc1nc(-c2cc(F)c(N3CCC(CC(=O)O)CC3)c(F)c2)ncc1F` [Example 597, {1-[2,6-difluoro-4-(5-fluoro-4-isobutoxy-pyrimidin-2-yl)-phenyl]-piperidin-4-yl}-acetic acid] fall in the same range of EC50: 200 to 2000 nM for the first, 200 to 2000 nM for the second.

`COCCCOc1cccc(-c2cc(F)c(N3CCC(CC(=O)O)C3)c(F)c2)n1` (stereo not shown) [Example 595, (1-{2,6-difluoro-4-[6-(3-methoxy-propoxy)-pyridin-2-yl]-phenyl}-pyrrolidin-3-yl)-acetic acid] and `COCCCOc1ccnc(-c2cc(F)c(N3CCC(CC(=O)O)CC3)c(F)c2)n1` [Example 600, (1-{2,6-difluoro-4-[4-(3-methoxy-propoxy)-pyrimidin-2-yl]-phenyl}-piperidin-4-yl)-acetic acid] fall in the same range of EC50: 200 to 2000 nM for the first, 200 to 2000 nM for the second.

`O=C(O)CC1CCN(c2c(F)cc(-c3cccc(OC4CCSCC4)n3)cc2F)C1` (stereo not shown) [Example 596] and `CC(C)CCOc1ccnc(-c2cc(F)c(N3CCC(CC(=O)O)CC3)c(F)c2)n1` [Example 599, (1-{2,6-difluoro-4-[4-(3-methyl-butoxy)-pyrimidin-2-yl]-phenyl}-piperidin-4-yl)-acetic acid] fall in the same range of EC50: 200 to 2000 nM for the first, 200 to 2000 nM for the second.

Compound `CCCOc1nc(-c2cc(F)c(N3CCC(CC(=O)O)CC3)c(F)c2)ncc1F` [Example 598, {1-[2,6-difluoro-4-(5-fluoro-4-propoxy-pyrimidin-2-yl)-phenyl]-piperidin-4-yl}-acetic acid] has an EC50 of under 200 nM.
